Laboratory results as given in article PMC2691177 (Biochemical Journal, 2009).

Target: human lysosomal HexA/HexB
Format: biochemical
Conditions: read-out: Hex A/B, Ki

In the case of CC(=O)N[C@H]1/C(=N/OC(=O)Nc2ccccc2)O[C@H](CO)[C@@H](O)[C@@H]1O [PUGNAc, O-(2-acetamido-2-deoxy-D-glucopyranosylidene)amino N-phenylcarbamate], the Ki is reported as 0.025 ± 0.0025 µM.
